From patent publication US10758534B2 (Vertex Pharmaceuticals Incorporated, priority 2014, dated 2020) come the findings set out here.

Structures are written as SMILES.

T1 sequence (P13569 with tags, fused parts or gaps DEL508-508): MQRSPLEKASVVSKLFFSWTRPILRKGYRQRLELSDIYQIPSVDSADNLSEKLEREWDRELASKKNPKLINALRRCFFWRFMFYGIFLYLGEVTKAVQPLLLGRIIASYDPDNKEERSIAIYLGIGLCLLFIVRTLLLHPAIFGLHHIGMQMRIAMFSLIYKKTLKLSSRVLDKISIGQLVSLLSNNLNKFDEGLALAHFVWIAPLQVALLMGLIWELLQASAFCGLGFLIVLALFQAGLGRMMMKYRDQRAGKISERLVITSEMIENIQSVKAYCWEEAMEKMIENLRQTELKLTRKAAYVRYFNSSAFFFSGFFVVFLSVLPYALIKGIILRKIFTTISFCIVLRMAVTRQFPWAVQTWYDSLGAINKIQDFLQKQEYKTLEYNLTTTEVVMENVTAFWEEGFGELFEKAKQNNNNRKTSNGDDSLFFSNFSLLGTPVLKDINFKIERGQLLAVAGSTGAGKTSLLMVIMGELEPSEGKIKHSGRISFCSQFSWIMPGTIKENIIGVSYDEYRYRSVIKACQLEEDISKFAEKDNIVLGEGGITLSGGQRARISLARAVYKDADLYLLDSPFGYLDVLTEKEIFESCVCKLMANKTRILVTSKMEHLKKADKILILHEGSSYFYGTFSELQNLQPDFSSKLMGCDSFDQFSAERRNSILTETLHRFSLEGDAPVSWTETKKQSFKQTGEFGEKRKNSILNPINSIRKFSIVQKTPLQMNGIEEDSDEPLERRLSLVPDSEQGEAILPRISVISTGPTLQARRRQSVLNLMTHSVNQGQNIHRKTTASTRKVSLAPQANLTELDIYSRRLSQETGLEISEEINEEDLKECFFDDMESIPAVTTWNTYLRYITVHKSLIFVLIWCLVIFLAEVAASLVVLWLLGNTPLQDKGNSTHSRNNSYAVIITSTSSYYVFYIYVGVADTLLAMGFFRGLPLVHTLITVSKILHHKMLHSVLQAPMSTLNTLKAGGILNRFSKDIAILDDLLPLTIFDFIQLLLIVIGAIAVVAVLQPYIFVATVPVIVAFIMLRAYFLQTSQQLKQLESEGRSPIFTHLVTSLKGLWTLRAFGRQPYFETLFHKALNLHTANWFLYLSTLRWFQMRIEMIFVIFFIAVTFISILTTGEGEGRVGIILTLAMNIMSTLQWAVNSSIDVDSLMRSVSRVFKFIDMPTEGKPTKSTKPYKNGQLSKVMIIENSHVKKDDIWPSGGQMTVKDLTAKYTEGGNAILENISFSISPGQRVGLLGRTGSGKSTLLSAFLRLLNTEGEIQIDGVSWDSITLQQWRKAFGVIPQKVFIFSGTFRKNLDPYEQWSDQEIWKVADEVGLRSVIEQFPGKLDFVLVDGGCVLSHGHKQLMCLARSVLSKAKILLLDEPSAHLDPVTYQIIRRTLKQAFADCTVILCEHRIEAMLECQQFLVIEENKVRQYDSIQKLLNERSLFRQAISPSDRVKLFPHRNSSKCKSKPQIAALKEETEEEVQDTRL

The assay addresses T1, F508del (Homo sapiens, UniProt P13569, DEL508-508).
T1 construct: expressed in transfected cells
Put plainly: Protocol 1: membrane potential optical assay (FLIPR III, voltage sensing dye), identification of potentiator compounds. The class given is cell-based. The following applies: Table 3, compounds of Table 1. The method, boiled down:
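Read-out: change in voltage-sensing dye fluorescence (FLIPR III) as a measure of F508del conductance. Temperature-corrected (27° C, 24 hrs) NIH 3T3 cells expressing F508del are pretreated with potentiators, dye-loaded, then stimulated with forskolin under a chloride ion gradient using chloride-free gluconate bath.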
For the molecule `CC1CN(c2ncccc2C(=O)NS(=O)(=O)c2cccc(OCc3ccc(Cl)cc3Cl)n2)C(C)(C)C1` (stereo not drawn) [Compound 1929, N—[[6-[(2,4-dichlorophenyl)methoxy]-2-pyridyl]sulfonyl]-2-(2,2,4-trimethylpyrrolidin-1-yl)pyridine-3-carboxamide], the EC30 result is given as “+++ (“+++” means <3 uM)”. `CC1CN(c2ncccc2C(=O)NS(=O)(=O)c2cccc(Nc3cccc4cccnc34)n2)C(C)(C)C1` (stereo not drawn) [Compound 1826, N—[[6-(8-quinolylamino)-2-pyridyl]sulfonyl]-2-(2,2,4-trimethylpyrrolidin-1-yl)pyridine-3-carboxamide]: the EC30 result is listed as “+++ (“+++” means <3 uM)”.

Regarding `CC(C)COc1cc(F)cc(-c2ccc(C(=O)NS(=O)(=O)c3ccn[nH]3)c(N3C[C@H](C)CC3(C)C)n2)c1` [Compound 1176, 6-(3-fluoro-5-isobutoxy-phenyl)-N-(1H-pyrazol-5-ylsulfonyl)-2-[(4R)-2,2,4-trimethylpyrrolidin-1-yl]pyridine-3-carboxamide], the EC30 result is listed as “+++ (“+++” means <3 uM)”. On to `C[C@@H]1CN(c2nc(-c3ccc(OC(F)(F)F)cc3)ccc2C(=O)NS(=O)(=O)c2cccc(N)n2)C(C)(C)C1` [Compound 1785, N-[(6-amino-2-pyridyl)sulfonyl]-6-[4-(trifluoromethoxy)phenyl]-2-[(4S)-2,2,4-trimethylpyrrolidin-1-yl]pyridine-3-carboxamide], for which the EC30 entry is recorded as “+++ (“+++” means <3 uM)”. The value for `CC(C)[C@@H](C)Nc1ccc(-c2ccc(C(=O)NS(=O)(=O)c3cccc(N)n3)c(N3[C@H](C)CC[C@@H]3C)n2)cn1` [Compound 1442, N-[(6-amino-2-pyridyl)sulfonyl]-6-[6-[[(1R)-1,2-dimethylpropyl]amino]-3-pyridyl]-2-[(2S,5R)-2,5-dimethylpyrrolidin-1-yl]pyridine-3-carboxamide] was “+++ (“+++” means <3 uM)”; that for `CC(C)COc1cccc(-c2ccc(C(=O)NS(=O)(=O)c3ccc[nH]c3=O)c(N3CCC(C)CC3)n2)c1` [Compound 958, 6-(3-isobutoxyphenyl)-2-(4-methyl-1-piperidyl)-N-[(2-oxo-1H-pyridin-3-yl)sulfonyl]pyridine-3-carboxamide] was “+++ (“+++” means <3 uM)”; that for `CCN(CC)c1cccc(-c2ccc(C(=O)NS(=O)(=O)c3cccc(N)n3)c(N3CC(C)CC3(C)C)n2)n1` (stereo not drawn) [Compound 1345, N-[(6-amino-2-pyridyl)sulfonyl]-6-[6-(diethylamino)-2-pyridyl]-2-(2,2,4-trimethylpyrrolidin-1-yl)pyridine-3-carboxamide] was “+++ (“+++” means <3 uM)”. Under `Cc1cc(C)c(Oc2nc(-c3ccc4c(c3)OCO4)ccc2C(=O)NS(=O)(=O)c2cccc(N)n2)c(C)c1` [Compound 1207, N-[(6-amino-2-pyridyl)sulfonyl]-6-(1,3-benzodioxol-5-yl)-2-(2,4,6-trimethylphenoxy)pyridine-3-carboxamide] stands “+++ (“+++” means <3 uM)”; under `CCc1cccc2c(C(=O)NS(=O)(=O)c3cccc(N)n3)n(Cc3c(C)cc(C)cc3C)nc12` [Compound 1086, N-[(6-amino-2-pyridyl)sulfonyl]-7-ethyl-2-[(2,4,6-trimethylphenyl)methyl]indazole-3-carboxamide], “++ (“++” means between 3 uM and 10 uM)”; under `Cc1ccc(-c2ccc(C(=O)NS(=O)(=O)c3ccc[nH]c3=O)c(N3C[C@@H](C)CC3(C)C)n2)c2ccccc12` [Compound 1811, 6-(4-methyl-1-naphthyl)-N-[(2-oxo-1H-pyridin-3-yl)sulfonyl]-2-[(4S)-2,2,4-trimethylpyrrolidin-1-yl]pyridine-3-carboxamide], “+++ (“+++” means <3 uM)”.

Turning to `CC(C)Oc1ccc(-c2ccc(C(=O)NS(=O)(=O)c3cccc(N)n3)c(NCc3ccccc3)n2)cn1` [Compound 1026, N-[(6-amino-2-pyridyl)sulfonyl]-2-(benzylamino)-6-(6-isopropoxy-3-pyridyl)pyridine-3-carboxamide], the EC30 result was “++ (“++” means between 3 uM and 10 uM)”. Regarding `CC(C)Oc1ccc(-c2ccc(C(=O)NS(=O)(=O)c3cccc(N)n3)c(N3CCC(Oc4ccccc4)CC3)n2)cn1` [Compound 1080, N-[(6-amino-2-pyridyl)sulfonyl]-6-(6-isopropoxy-3-pyridyl)-2-(4-phenoxy-1-piperidyl)pyridine-3-carboxamide], the EC30 result is on record as “+++ (“+++” means <3 uM)”. Under `CC(C)COc1cc(F)cc(-c2ccc(C(=O)NS(=O)(=O)c3ccc(O)c(N)n3)c(N3C[C@@H](C)CC3(C)C)n2)c1` [Compound 1563, N-[(6-amino-5-hydroxy-2-pyridyl)sulfonyl]-6-(3-fluoro-5-isobutoxy-phenyl)-2-[(4S)-2,2,4-trimethylpyrrolidin-1-yl]pyridine-3-carboxamide] stands “+++ (“+++” means <3 uM)”. In the case of `CCOc1cccc2c1CN(Cc1ccc(F)cc1)C2(C)C(=O)NS(=O)(=O)c1cccc(F)n1` (stereo not drawn) [Compound 1583, 4-ethoxy-2-[(4-fluorophenyl)methyl]-N-[(6-fluoro-2-pyridyl)sulfonyl]-1-methyl-isoindoline-1-carboxamide], the EC30 entry is “++ (“++” means between 3 uM and 10 uM)”.

In the case of `CC1CCCC(Oc2cccc(S(=O)(=O)NC(=O)c3cccnc3N3CC(C)CC3(C)C)n2)C1` (stereo not drawn) [Compound 1988, N—[[6-(3-methylcyclohexoxy)-2-pyridyl]sulfonyl]-2-(2,2,4-trimethylpyrrolidin-1-yl)pyridine-3-carboxamide], the EC30 entry was “+++ (“+++” means <3 uM)”.

Take `C[C@@H]1CN(c2nc(C3=CC(C)(C)OCC3)ccc2C(=O)NS(=O)(=O)c2cccc(N)n2)C(C)(C)C1` [Compound 1369, N-[(6-amino-2-pyridyl)sulfonyl]-6-(6,6-dimethyl-2,3-dihydropyran-4-yl)-2-[(4S)-2,2,4-trimethylpyrrolidin-1-yl]pyridine-3-carboxamide]: the EC30 entry is on record as “+++ (“+++” means <3 uM)”. Under `CC1CN(c2nc(C(C)(C)C)c(C3=CCCCC3)cc2C(=O)NS(=O)(=O)c2cccc(N)n2)C(C)(C)C1` (stereo not drawn) [Compound 1601, N-[(6-amino-2-pyridyl)sulfonyl]-6-tert-butyl-5-(cyclohexen-1-yl)-2-(2,2,4-trimethylpyrrolidin-1-yl)pyridine-3-carboxamide] stands “+++ (“+++” means <3 uM)”; under `C[C@@H]1CN(c2nc(C3=CCCN(S(=O)(=O)N4CCCCC4)C3)ccc2C(=O)NS(=O)(=O)c2cccc(N)n2)C(C)(C)C1` [Compound 1942, N-[(6-amino-2-pyridyl)sulfonyl]-6-[1-(1-piperidylsulfonyl)-3,6-dihydro-2H-pyridin-5-yl]-2-[(4S)-2,2,4-trimethylpyrrolidin-1-yl]pyridine-3-carboxamide], “++ (“++” means between 3 uM and 10 uM)”; under `Cc1cc(C)c(Oc2ncc(-c3ccccc3C(C)(C)C)cc2C(=O)NS(=O)(=O)c2cccc(N)n2)c(C)c1` [Compound 868, N-[(6-amino-2-pyridyl)sulfonyl]-5-(2-tert-butylphenyl)-2-(2,4,6-trimethylphenoxy)pyridine-3-carboxamide], “+++ (“+++” means <3 uM)”.

With `CC(C)COc1cc(F)cc(-c2ccc(C(=O)NS(=O)(=O)c3cccc(N)n3)c(C3=C[C@H](C)CC3(C)C)n2)c1` [Compound 1961], the EC30 entry is recorded as “+++ (“+++” means <3 uM)”. Turning to `Cc1cc(-c2ccc(C(=O)NS(=O)(=O)c3cccc(N)n3)c(N3C[C@@H](C)CC3(C)C)n2)cnc1OCCOC(C)C` [Compound 1973, N-[(6-amino-2-pyridyl)sulfonyl]-6-[6-(2-isopropoxyethoxy)-5-methyl-3-pyridyl]-2-[(4S)-2,2,4-trimethylpyrrolidin-1-yl]pyridine-3-carboxamide], the EC30 entry is “+++ (“+++” means <3 uM)”.

For `CC(C)COc1cc(F)cc(-c2ccc(C(=O)NS(=O)(=O)c3cccc(N)n3)c(OCC3CC3(C)C)n2)c1` (stereo not drawn) [Compound 894, N-[(6-amino-2-pyridyl)sulfonyl]-2-[(2,2-dimethylcyclopropyl)methoxy]-6-(3-fluoro-5-isobutoxy-phenyl)pyridine-3-carboxamide], the EC30 result is on record as “+++ (“+++” means <3 uM)”. For the molecule `Cc1cc(C)c(Oc2nc(-c3cc(OCC(C)C)ccc3Cl)ccc2C(=O)NS(=O)(=O)c2ccc[nH]c2=O)c(C)c1` [Compound 1201, 6-(2-chloro-5-isobutoxy-phenyl)-N-[(2-oxo-1H-pyridin-3-yl)sulfonyl]-2-(2,4,6-trimethylphenoxy)pyridine-3-carboxamide], the EC30 result is reported as “+++ (“+++” means <3 uM)”.

As to `CC1CN(c2ncccc2C(=O)NS(=O)(=O)c2cccc(NCc3ccc4c(c3)OCO4)n2)C(C)(C)C1` (stereo not drawn) [Compound 1814, N—[[6-(1,3-benzodioxol-5-ylmethylamino)-2-pyridyl]sulfonyl]-2-(2,2,4-trimethylpyrrolidin-1-yl)pyridine-3-carboxamide], the EC30 entry was “+++ (“+++” means <3 uM)”. The value for `CC(C)COc1cc(F)cc(-c2ccc(C(=O)NS(=O)(=O)N3CCCC(O)C3)c(N3C[C@@H](C)CC3(C)C)n2)c1` (stereo partly drawn) [Compound 1608, 6-(3-fluoro-5-isobutoxy-phenyl)-N-[(3-hydroxy-1-piperidyl)sulfonyl]-2-[(4S)-2,2,4-trimethylpyrrolidin-1-yl]pyridine-3-carboxamide] was “+++ (“+++” means <3 uM)”; that for `Cc1cc(OCC(C)C)nc(-c2ccc(C(=O)NS(=O)(=O)c3cccc(N)n3)c(N3C[C@@H](C)CC3(C)C)n2)c1` [Compound 1656, N-[(6-amino-2-pyridyl)sulfonyl]-6-(6-isobutoxy-4-methyl-2-pyridyl)-2-[(4S)-2,2,4-trimethylpyrrolidin-1-yl]pyridine-3-carboxamide] was “+++ (“+++” means <3 uM)”; that for `C[C@@H]1CN(c2nc(C3CCOC3)ccc2C(=O)NS(=O)(=O)c2cccc(N)n2)C(C)(C)C1` (stereo partly drawn) [Compound 1534, N-[(6-amino-2-pyridyl)sulfonyl]-6-tetrahydrofuran-3-yl-2-[(4S)-2,2,4-trimethylpyrrolidin-1-yl]pyridine-3-carboxamide] was “++ (“++” means between 3 uM and 10 uM)”.
